According to US20230085945A1, “ORTHOGONAL SAFETY SWITCHES TO ELIMINATE GENETICALLY ENGINEERED CELLS” (The Board of Trustees of the Leland Stanford Junior …, priority 2020, published 2023):

Tests used:
[1] = tested on: ACTB^OiCasp9-mPlum;NANOG^iCasp9-YFP hPSCs and differentiated liver, bone and neural progenitors; assay: Killing of ACTB^OiCasp9-mPlum;NANOG^iCasp9-YFP hPSCs and differentiated derivatives by AP21 or AP20 (alamar blue); assay type: cell-based, human; details: dual-transgenic line; 1 nM, 24 hours
Description: FIG. 6: Rationale, design and implementation of the ACTB^OiCasP9-mPlum safety switch. A) Intended application of the dual ACTB^OiCasp9-mPlum;NANOG^iCasp9-YFP safeguard. B) Cas9 RNP/AAV6-based knock-in strategy for ACTB^iCasp9-mPlum targeting, which was performed in the NANOG^iCasp9-YFP hESC line. C) 5×10^5 ACTB^OiCasp9-mPlum; NANOG^iCasp9-YFP hESCs were treated with control media or 1-1000 nM AP21967 for 24 hours. Cell viability was analyzed using alamar blue. D) ACTB^OiCasp9-mPlum;NANOG^iCasp9-YFP and ACTB^TK-mPlum; NANOG^iCasp9-YFP hESCs (negative control), in addition to their respective differentiated derivatives, were treated for 24 hours with 1 nM of AP21967. E) 5×10^5 ACTB^OiCasp9-mPlum; NANOG^iCasp9-YFP hESCs, and their respective differentiated derivatives, were treated with control media, 1 nM of AP21967 or and 1 nM of AP20187 for 24 hours. Surviving cells were analyzed by alamar blue. F) 10^6 ACTB^OiCasp9-mPlum;NANOG^iCasp9-YFP hESCs engineered to express CAG-AkaLuciferase were treated with control media or 1 nM AP20187 for 24 hours, and then subcutaneously transplanted into the right and left dorsal flanks of NOD-SCID Il2rg^−/− mice (10^6 cells per flank). 4 weeks post-transplant, teratomas formed and AP21967 was intraperitoneally administered once at 10 mg/kg. […] Total flux (photons/sec) was measured for each animal and was averaged.

[2] = tested on: ACTB^TK-mPlum;NANOG^iCasp9-YFP hESCs (iCaspase9-expressing cells); assay: AP21967 treatment of iCaspase9-expressing cells (cross-reactivity check); assay type: cell-based, human; details: AP21967 24 hours
[3] = tested on: H9 undifferentiated hPSCs and hPSC-derived neural, liver, and sclerotome cells; assay: YM155 treatment, cell viability by alamar blue; assay type: cell-based, human; details: YM155 10 nM or 2 μM, 24 hours
Description: FIG. 7: Marker expression during hPSC differentiation and evaluation of past safety switches (related to FIG. 2). A) i) Flow cytometry analysis of widely-used pluripotency surface markers SSEA-3, SSEA-4, TRA-1-60, TRA-1-81 and PODXL1^20,21 before and during differentiation into endodermal, mesodermal and ectodermal lineages for 1-6 days. Positive gates were set based on unstained negative controls. ii) Gene expression analysis of previously reported safety system genes CDK1, TERT, SCD1, PODXL1 and SURVIVIN before and during differentiation into endodermal, mesodermal and ectodermal lineages. Expression of lineage markers is depicted normalized to the reference gene YWHAZ (i.e., YWHAZ=1.0). B) Widely-used pluripotency surface markers such as SSEA-3, SSEA-4, TRA-1-60, TRA-1-81 and PODXL1^20,21 were not exclusive to pluripotent cells. […] Unstained hESCs (top row; grey shading) were used as a negative control to set positive gates (dotted vertical lines). […] D) H9 undifferentiated hPSCs and hPSC-derived neural, liver, and sclerotome cells (generated after 6 days of differentiation) were treated for 24 hours with YM155 (either 10 nM or 2 μM), a small molecule SURVIVIN inhibitor, and cell viability was assessed using alamar blue.

[4] = tested on: ACTB^HSV-TK-mPlum;NANOG^iCasp9-YFP hPSCs; assay: Quantification of cell death after ganciclovir treatment of hPSCs; assay type: cell-based, human
Description: (§1) FIG. 5: Implementation of the ACTB^TK-mPlum safety switch. A) NANOG^iCasp9-YFP;ACTB^TK-mPlum hESCs were treated with ganciclovir (or left untreated) for 24 hours, and subsequently ganciclovir was withdrawn and hESCs were cultured for 1 week in mTeSR1 to detect any surviving cells and to allow them to regrow. […] N.D.=not detected. B) NANOG^iCasp9-YFP;ACTB^TK-mPlum hESCs were differentiated into day 6 liver, sclerotome and neural progenitors and treated with ganciclovir at the indicated doses for the last 24 hours of differentiation. Cell survival was analyzed by counting at day 6 of differentiation. C) 10^6 NANOG^iCasp9-YFP; ACTB^TK-mPlum hESCs engineered to express CAG-AkaLuciferase were treated with control media or 1 nM AP20187 for 24 hours, and then subcutaneously transplanted into the right and left dorsal flanks of NOD-SCID Il2rg^−/− mice (10^6 cells per flank). After 3 weeks post-transplant, teratomas formed in vivo and ganciclovir was administered daily at 50 mg/kg until week 7 post-transplant. Bioluminescent imaging of mice was conducted weekly for 7 weeks. Total flux (photons/sec) was measured for each animal and were averaged.
Quantification of cell death after ganciclovir treatment. […] At the end of 6 days of culture in mTeSR1 alone, the number of surviving live cells was counted.

[5] = tested on: ACTB^HSV-TK-mPlum;NANOG^iCasp9-YFP hPSC-derived liver, bone and forebrain progenitors; assay: Ganciclovir treatment of differentiated progenitors, cell counting at day 6; assay type: cell-based, human; details: ganciclovir for last 24 hours of differentiation
[6] = tested on: teratomas from ACTB^HSV-TK-mPlum;NANOG^iCasp9-YFP hPSCs; assay: Elimination of teratomas using ganciclovir in vivo (bioluminescent imaging); parameters: species or system NSG mice; details: week 7 post-transplantation, 4 weeks after initiating ganciclovir 50 mg/kg daily
Description: as §1, with “After 3 weeks post-transplant, teratomas formed in vivo and ganciclovir was administered daily at 50 mg/kg until week 7 post-transplant. Bioluminescent imaging of mice was conducted weekly for 7 weeks.” left out
FIG. 10: Supporting data for ACTB^TK-mPlum safety switch (related to FIGS. 4-5). […] Total flux (photons/sec) was measured for each animal.
Bioluminescent imaging. […] Subsequent image analysis was done in Aura with regions of interest (ROIs) drawn for each mouse to calculate Total Flux (photons/sec) in order to quantify teratoma growth over time. […]

## CO[C@H]1[C@@H](O)[C@H](C)C[C@H](C)/C=C/C=C/C=C(\C)[C@@H](c2c[nH]c3c(C)cccc23)C[C@@H]2CC[C@@H](C)[C@@](O)(O2)C(=O)C(=O)N2CCCC[C@H]2C(=O)O[C@H]([C@H](C)C[C@@H]2CC[C@@H](O)[C@H](OC)C2)C[C@H](O)[C@H](C)/C=C(\C)[C@H]1O [AP21]
[1]
  killing of undifferentiated and differentiated cells: kill both undifferentiated hPSCs and differentiated liver, bone and neural progenitors
[2]
  killing of iCaspase9-expressing cells: does not kill iCaspase9-expressing cells

## COCCn1c2c([n+](Cc3cnccn3)c1C)C(=O)c1ccccc1C2=O [YM155]
[3]
  cell killing (viability): killed both undifferentiated and differentiated hPSCs

## Nc1nc(O)c2ncn(COC(CO)CO)c2n1 [ganciclovir]
[4]; ganciclovir 24 hours, then 1 week in mTeSR1
  in vitro proliferation of hPSCs: broadly blocked the in vitro proliferation
[4]; three days post-GCV treatment (0.5-2 μM, 24 hours)
  cell death in hPSCs: cell death was observed
[5]
  in vitro proliferation of derivative liver, bone and forebrain progenitors: broadly blocked the in vitro proliferation
[6]
  detectable teratomas by bioluminescent imaging: no ganciclovir-treated mice had detectable teratomas
